According to US20220380378A1 (ESSA Pharma, Inc., priority 2021, published 2022):

The molecules below were run against T1, androgen receptor (AR) (Homo sapiens, UniProt P10275, T878A) (assay: Androgen-induced PSA (6.1 kb)-luciferase reporter assay in LNCaP cells (R1881 1 nM)). Details: 24 h, read-out: PSA-Luc IC50 Range.
T1 sequence (P10275 1-920 T878A): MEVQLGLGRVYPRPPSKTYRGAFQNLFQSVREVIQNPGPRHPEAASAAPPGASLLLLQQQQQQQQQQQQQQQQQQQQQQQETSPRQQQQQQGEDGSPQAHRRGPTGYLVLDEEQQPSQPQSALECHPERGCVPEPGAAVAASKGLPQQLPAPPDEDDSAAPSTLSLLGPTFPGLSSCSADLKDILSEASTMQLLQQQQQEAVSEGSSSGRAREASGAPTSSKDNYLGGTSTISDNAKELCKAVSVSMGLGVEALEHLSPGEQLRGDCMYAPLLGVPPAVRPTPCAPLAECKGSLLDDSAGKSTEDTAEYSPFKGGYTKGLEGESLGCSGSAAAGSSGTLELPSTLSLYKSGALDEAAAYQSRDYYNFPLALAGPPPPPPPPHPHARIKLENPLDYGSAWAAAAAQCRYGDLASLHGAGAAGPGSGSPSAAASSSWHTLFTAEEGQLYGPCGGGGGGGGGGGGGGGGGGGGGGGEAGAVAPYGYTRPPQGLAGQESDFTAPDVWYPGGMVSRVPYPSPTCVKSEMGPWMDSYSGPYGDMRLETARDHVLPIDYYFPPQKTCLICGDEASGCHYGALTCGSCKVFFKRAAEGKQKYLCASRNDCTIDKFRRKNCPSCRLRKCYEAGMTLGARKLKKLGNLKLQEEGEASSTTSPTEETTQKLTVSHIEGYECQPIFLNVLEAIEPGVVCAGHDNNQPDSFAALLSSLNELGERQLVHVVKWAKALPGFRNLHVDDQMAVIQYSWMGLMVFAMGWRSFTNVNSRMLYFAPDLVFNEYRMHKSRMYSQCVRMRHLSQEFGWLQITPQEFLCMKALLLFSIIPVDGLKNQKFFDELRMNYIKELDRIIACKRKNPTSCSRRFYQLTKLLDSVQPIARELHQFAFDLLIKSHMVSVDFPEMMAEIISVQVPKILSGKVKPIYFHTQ
Format: cell-based
Design: endogenous in cells; host or cells: LNCaP
Description: The PSA (6.1 kb)-luciferase reporter contains functional AREs (androgen response elements) to which AR binds in response to androgen to induce luciferase activity. LNCaP cells were transiently transfected with the PSA (6.1 kb)-luciferase reporter for 24 h, and then pretreated with vehicle (DMSO) or indicated concentration of representative compounds for one hour prior to the addition of synthetic androgen, R1881 (1 nM). After 24 h of incubation with R1881, the cells were harvested, and relative luciferase activities were determined (FIG. 1). To determine the IC50, treatments were normalized to vehicle control activity induced by R1881 (Table 2).
Luciferase Assay: Cells were lysed using Passive Lysis Buffer (Promega) and then collected into V-bottom 96-well tissue culture plates. Lysates were centrifuged at 4° C. for 5 minutes at 3000 rpm. To measure luminescence of LNCaP cell lysates the Firefly Luciferase Assay System (Promega) was employed, according to manufacturer's protocol. Relative luminescence units (RLU) in cell lysates were detected for 10 seconds using Promega GloMax-Multi Detection Luminometer (Promega). Values were normalized to protein content. GraphPad Prism graphing software was used to calculate IC50 values.
Statistical analyses were performed using GraphPad Prism (Version 6.01 for Windows; La Jolla, Calif., USA). Comparisons between treatment and control groups were compared using Two-Way ANOVA with post-hoc Dunnett's and Tukey's tests. Differences were considered statistically significant at P values less than 0.05.

Row | SMILES | IC50
1 | CS(=O)(=O)Nc1ncc(Cn2ncc3ccc(-c4cc(Cl)c(OCCCl)c(C#N)c4)cc32)cn1 [Compound A143] | > 2000 nM
2 | CC(C)(c1ccc(-c2ccc3oc(NS(C)(=O)=O)nc3c2)cc1)c1cc(Cl)c(OCCCl)c(C#N)c1 [Compound A255] | 500 to 2000 nM
3 | CS(=O)(=O)N1CC(O)(COc2ccc3c(ccn3-c3cc(Cl)c(OCCCl)c(C#N)c3)c2)C1 [Compound A158] | 500 to 2000 nM
4 | CS(=O)(=O)N1CCC(CCOc2ccc3c(ccn3-c3cc(Cl)c(OCCCl)c(C#N)c3)c2)CC1 [Compound A190] | > 2000 nM
5 | N#Cc1cc(-n2ccc3cc(OCc4c[nH]nn4)ccc32)cc(Cl)c1OCCCl [Compound A54] | 500 to 2000 nM
6 | CCC(O)COc1c(Cl)cc(C(C)(C)c2ccc(OCc3ccnc(NS(C)(=O)=O)n3)cc2)cc1C#N (stereo not shown) [Compound A174] | > 2000 nM
7 | CC(C)(c1ccc(OCC23CC(CNS(C)(=O)=O)(C2)C3)cc1)c1cc(Cl)c(OCCCl)c(C#N)c1 [Compound A277] | < 500 nM
8 | CS(=O)(=O)n1cc(COc2ccc3c(ccn3-c3cc(Cl)c(OCCCl)c(C#N)c3)c2)cn1 [Compound A52] | 500 to 2000 nM
9 | CC(C)(c1ccc(-c2n[nH]c3nc(NS(C)(=O)=O)ncc23)cc1)c1cc(Cl)c(OCCCl)c(C#N)c1 [Compound A203] | 500 to 2000 nM
10 | C[C@H](Oc1ccc(C(C)(C)c2cc(Cl)c(OCCCl)c(C#N)c2)cc1)C12CC(NS(C)(=O)=O)(C1)C2 [Compound A265] | 500 to 2000 nM
11 | CS(=O)(=O)Nc1nccc(COc2ccc3c(ccn3-c3cc(Cl)c(OC=C(Cl)Cl)c(C#N)c3)c2)n1 [Compound A128] | 500 to 2000 nM
12 | CS(=O)(=O)N1CCO[C@@H](COc2ccc3c(ccn3-c3cc(Cl)c(OCCCl)c(C#N)c3)c2)C1 [Compound A205] | > 2000 nM
13 | CS(=O)(=O)N1CC2(CN(Cc3ccc4c(ccn4-c4cc(Cl)c(OCCCl)c(C#N)c4)c3)C2)C1 [Compound A241, 3-chloro-2-(2-chloroethoxy)-5-(5-((6-(methylsulfonyl)-2,6-diazaspiro[3.3]heptan-2-yl)methyl)-1H-indol-1-yl)benzonitrile] | > 2000 nM
14 | CS(=O)(=O)Nc1nccc(COc2ccc3c(-c4cc(Cl)c(OCCCl)c(C#N)c4)ncnc3c2)n1 [Compound A18] | > 2000 nM
15 | CS(=O)(=O)Nc1nccc(COc2ccc3c(c2)COC3c2cc(Cl)c(OCCCl)c(C#N)c2)n1 (stereo not shown) [Compound A85] | > 2000 nM
16 | CC(C)(c1ccc(OCc2ccnc(NS(C)(=O)=O)n2)cc1)c1cnc(OCCCl)c(Cl)c1 [Compound A103] | > 2000 nM
17 | CC(NC12CC(NS(C)(=O)=O)(C1)C2)c1ccc2c(ccn2-c2cc(Cl)c(OCCCl)c(C#N)c2)c1 (stereo not shown) [Compound A184] | > 2000 nM
18 | CS(=O)(=O)Nc1nccc(COc2ccc3c(ccn3-c3ccn(CCCCl)c(=O)c3)c2)n1 [Compound A115] | > 2000 nM
19 | CS(=O)(=O)NC12CC(COc3ccc4c(-c5cc(Cl)c(OCCCl)c(C#N)c5)csc4c3)(C1)C2 [Compound A138] | > 2000 nM
20 | CC(C)(c1ccc(OCC23CCC(NS(C)(=O)=O)(CC2)C3)cc1)c1cc(Cl)c(OCCCl)c(C#N)c1 [Compound A272] | 500 to 2000 nM
21 | CS(=O)(=O)Nc1ncc2c(n1)CN(Cc1ccc3c(ccn3-c3cc(Cl)c(OCCCl)c(C#N)c3)c1)CC2 [Compound A153] | > 2000 nM
22 | Cc1nc(NS(C)(=O)=O)ncc1COc1ccc(C(C)(C)c2cc(Cl)c(OCCCl)c(C#N)c2)cc1 [Compound A91] | 500 to 2000 nM
23 | CS(=O)(=O)N1CCC(Oc2ccc3c(ccn3-c3cc(Cl)c(OCCCl)c(C#N)c3)c2)CC1 [Compound A200] | 500 to 2000 nM
24 | CS(=O)(=O)N1CCN(Cc2ccc3c(ccn3-c3cc(Cl)c(OCCCl)c(C#N)c3)c2)CC1 [Compound A123] | > 2000 nM
25 | CS(=O)(=O)NC1CC2(C1)CN(Cc1ccc3c(ccn3-c3cc(Cl)c(OCCCl)c(C#N)c3)c1)C2 [Compound A171] | > 2000 nM
26 | CC(C)(c1ccc(-c2cnc3nc(NS(C)(=O)=O)ccc3n2)cc1)c1cc(Cl)c(OCCCl)c(C#N)c1 [Compound A279] | 500 to 2000 nM

Row | SMILES | IC50
27 | CC(C)(c1ccc(-c2ccc3c(cnn3S(C)(=O)=O)c2)cc1)c1cc(Cl)c(OCCCl)c(C#N)c1 [Compound A111] | > 2000 nM
28 | CS(=O)(=O)Nc1ncc(Cn2cc3c(-c4cc(Cl)c(OCCCl)c(C#N)c4)cccc3n2)cn1 [Compound A161] | > 2000 nM
29 | CS(=O)(=O)N1CC2(CC(COc3ccc4c(ccn4-c4cc(Cl)c(OCCCl)c(C#N)c4)c3)C2)C1 [Compound A162] | 500 to 2000 nM
30 | CS(=O)(=O)N1CCN(CCc2ccc3c(ccn3-c3cc(Cl)c(OCCCl)c(C#N)c3)c2)C(=O)C1 [Compound A125] | > 2000 nM
31 | CC(C)(c1ccc(-c2cnc3oc(NS(C)(=O)=O)nc3c2)cc1)c1cc(Cl)c(OCCCl)c(C#N)c1 [Compound A256] | > 2000 nM
32 | CC(C)(c1ccc(-c2cnc3nc(NS(C)(=O)=O)cnc3c2)cc1)c1cc(Cl)c(OCCCl)c(C#N)c1 [Compound A195] | > 2000 nM
33 | CS(=O)(=O)N1CCCC(Oc2ccc3c(ccn3-c3cc(Cl)c(OCCCl)c(C#N)c3)c2)CC1 (stereo not shown) [Compound A202] | > 2000 nM
34 | CCNc1ncc2cc(-c3ccc(C(C)(C)c4cc(Cl)c(OCCCl)c(C#N)c4)cc3)ccc2n1 [Compound A176] | > 2000 nM
35 | CC(C)(c1ccc(-c2cnc3c(NS(C)(=O)=O)nccc3n2)cc1)c1cc(Cl)c(OCCCl)c(C#N)c1 [Compound A280] | 500 to 2000 nM
36 | CS(=O)(=O)N1CCC[C@@H]1COc1ccc2c(ccn2-c2cc(Cl)c(OCCCl)c(C#N)c2)c1 [Compound A224] | 500 to 2000 nM
37 | N#Cc1cc(-n2ccc3cc(OCc4coc(S(N)(=O)=O)c4)ccc32)cc(Cl)c1OCCCl [Compound A20] | 500 to 2000 nM
38 | CC(C)(c1ccc(OCC23CCN(S(C)(=O)=O)C(C2)C3)cc1)c1cc(Cl)c(OCCCl)c(C#N)c1 [Compound A284] | 500 to 2000 nM
39 | CC(=O)Nc1cnc(COc2ccc(C(C)(C)c3cc(Cl)c(OCCCl)c(C#N)c3)cc2)c(NS(C)(=O)=O)n1 [Compound A76] | < 500 nM
40 | CS(=O)(=O)Nc1ncc2ccc(COc3cccc(-c4cc(Cl)c(OCCCl)c(C#N)c4)c3)cc2n1 [Compound A152] | > 2000 nM
41 | CS(=O)(=O)NCc1ccc(-c2ccc3c(ccn3-c3cc(Cl)c(OCCCl)c(C#N)c3)c2)cc1 [Compound A164] | > 2000 nM
42 | CC(C)(c1ccc(-c2cnc3nc(NS(C)(=O)=O)ncc3c2)cc1)c1cc(Cl)c(OCCCl)c(C#N)c1 [Compound A192] | 500 to 2000 nM
43 | CS(=O)(=O)N1CCCC1COc1ccc2c(ccn2-c2cc(Cl)c(OCCCl)c(C#N)c2)c1 (stereo not shown) [Compound A201] | > 2000 nM
44 | CS(=O)(=O)N1CCCC(COc2ccc3c(ccn3-c3cc(Cl)c(OCCCl)c(C#N)c3)c2)C1 (stereo not shown) [Compound A56] | 500 to 2000 nM
45 | CS(=O)(=O)Nc1ccn(CCc2ccc3c(ccn3-c3cc(Cl)c(OCCCl)c(C#N)c3)c2)c(=O)c1 [Compound A81] | > 2000 nM
46 | CS(=O)(=O)Nc1nccc(COc2ccc3c(c2)CC[C@@H]3c2cc(Cl)c(OCCCl)c(C#N)c2)n1 [A35(R)] | < 500 nM
47 | CS(=O)(=O)N1CCC[C@@H](COc2ccc3c(ccn3-c3cc(Cl)c(OCCCl)c(C#N)c3)c2)C1 [Compound A204] | > 2000 nM
48 | CS(=O)(=O)N[C@H]1C[C@H](COc2ccc3c(c2)CCC3c2cc(Cl)c(OCCCl)c(C#N)c2)C1 (stereo partly shown) [Compound A266] | 500 to 2000 nM
49 | CC(C)(c1ccc(OCc2ccnc(NS(C)(=O)=O)n2)cc1)c1cc(Cl)c(OCC(O)CCl)c(C#N)c1 (stereo not shown) [Compound A258] | > 2000 nM
50 | CS(=O)(=O)NCC1CCN(Cc2ccc3c(ccn3-c3cc(Cl)c(OCCCl)c(C#N)c3)c2)CC1 [Compound A236] | > 2000 nM
51 | CC(C)(c1ccc(OCc2ccnc(NS(C)(=O)=O)n2)cc1)c1cc(Cl)c(NCCCl)c(C#N)c1 [Compound A66] | 500 to 2000 nM
52 | CC(C)COc1c(Cl)cc(-n2ccc3cc(OCc4ccnc(NS(C)(=O)=O)n4)ccc32)cc1C#N [Compound A71] | > 2000 nM
